Assay results: US20170202792A1, “METHOD FOR TREATING TAU-ASSOCIATED DISEASES” (NATIONAL TAIWAN NORMAL UNIVERSITY, priority 2016, published 2017)

Experiments:
[1] = tested on: mouse hippocampal primary culture cells; experiment: Mouse hippocampal primary culture under tau toxicity (WT and GFX); type: cell-based; conditions: 10 nM WT and GFX; 0.1, 0.25, 0.5 μM compound (I), 12 hours
Description: The mouse hippocampal primary culture cells were isolated from the hippocampi of C57BL/6J mouse embryos at days 16-18. On days in vitro (DIV) 4 and 7, 2 μM of cytosine arabinoside was added to the culture medium for reducing the glial cell populations. On DIV 9, the cells were treated with 10 nM of Wortmannin (WT) and GF109203X (GFX) to induce tau hyperphosphorylation for mimicking an AD condition. 0, 0.1, 0.25, and 0.5 μM of compound (I) were then added to the cells at DIV 9. Cells were harvested 12 hours later for immunocytochemical staining with NeuN (for neuron) and MAP2 (for neurite morphology) antibodies.

[2] = tested on: GSK-3β; experiment: Western blot of mouse hippocampal tissue, GSK-3β; type: in vivo; conditions: hyperglycemic 3×Tg-AD mice; 0.25 mg/kg i.p. daily
Description: Hyperglycemia was induced by streptozotocin (STZ) to accelerated Alzheimer's disease progression of 6-month-old male transgenic 3×Tg−AD mice. Half of the 3×Tg−AD mice (n=30) received STZ (100 mg/kg) intraperitoneal injection at days 1, 2, 8, and 9 respectively as the high blood glucose group (HBG); another half of the 3×Tg-AD mice (n=30) received sodium citrate (0.1 M) at the same time points as the normal blood glucose group (NBG). […] Both mouse body weight (BW) and blood glucose (BG) were monitored every week.
Mice were sacrificed after MWM and hippocampi were isolated for analyzing several protein expression levels by means of western blot. The protein of the hippocampi was quantified by BCA assay (Pierce), wherein 25 μg of protein was separated by SDS-PAGE and then transferred to PVDF film. Next, protein was blocked for reducing non-specific signals, and reacted with primary antibodies (GSK-3β, pS9-GSK-3β (non-activated), pT216-GSK-3β(activated), pS202Tau, pS396Tau, pT231Tau, HT7 (total Tau)), and secondary antibodies (anti-rabbit, anti-mouse IgG HRP-linked antibody; 1:10,000; Amersham Pharmacia Biotech). β-actin was used as the loading control, ECL kit was used to detect the antigen-antibody complex, and LAS-4000 (Fujifilm) was used for imaging and quantification.

[3] = tested on: transgenic flies overexpressing tau protein driven by Eq-gal4 (Eq>tau); experiment: In vivo tau toxicity, notal bristle number of flies; design: species or system Drosophila; conditions: 25 μM and 50 μM of compound (I) vs DMSO
Description: 10 Eq-ga14 flies were treated with DMSO as the control group, and transgenic flies overexpressing tau protein driven by Eq-ga14 (Eq>tau) were treated with DMSO, 25 μM of compound (I), and 50 μM of compound (I) respectively in each group of 10 flies. The number of notal bristle of the flies was then calculated.

[4] = biological target: T1, Recombinant human GSK-3β (Homo sapiens, UniProt P49841); experiment: GSK-3β kinase activity, ADP-Glo Kinase Assay; type: biochemical
T1 construct: purchased Promega V1991
T1 sequence (P49841 whole entry): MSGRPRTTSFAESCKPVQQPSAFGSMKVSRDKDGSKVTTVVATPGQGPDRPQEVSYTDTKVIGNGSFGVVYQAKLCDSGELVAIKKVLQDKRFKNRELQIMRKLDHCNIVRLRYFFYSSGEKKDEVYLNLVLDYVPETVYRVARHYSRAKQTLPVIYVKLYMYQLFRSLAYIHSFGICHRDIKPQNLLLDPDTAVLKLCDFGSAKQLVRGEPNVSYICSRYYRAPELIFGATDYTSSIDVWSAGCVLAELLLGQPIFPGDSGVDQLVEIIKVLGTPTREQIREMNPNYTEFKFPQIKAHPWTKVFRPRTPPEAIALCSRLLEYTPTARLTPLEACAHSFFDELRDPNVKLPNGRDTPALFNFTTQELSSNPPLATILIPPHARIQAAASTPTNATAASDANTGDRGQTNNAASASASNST
Description: The ability of the compound (I) and SB216763 (compound (II)) for inhibiting GSK-3β activity is evaluated in the following paragraphs, wherein compound (II) is a known GSK-3β inhibitor in the art (Product No. 53442, Sigma). GSK-3β kinase activity was measured in the presence of the tested compounds (I) and (II) using ADP-Glo™ Kinase Assay system (Promega). Recombinant human GSK-3β (Product code V1991, Promega) was used as the enzyme source, and the GSK-3β substrate is derived from human muscle glycogen synthase 1 peptide ([…](pS)EDEEE) which corresponds to a region of glycogen synthase that is phosphorylated by GSK-3β. Reactions were performed at 30° C. for 30 minutes in 25 μL mixture that contained 25 μM ATP, 0.2 mg/mL GSK-3β substrate, 1 ng of GSK-3β, and serial dilutions of compound (I) or compound (II). Kinase activity data were measured as relative light units (RLU) directly correlated with the amount of ADP produced and FIG. 1 showing the analysis results.
The IC50 values of compound (I) and compound (II) were determined by using SigmaPLOT software.

[5] = Body weight monitoring in STZ 3×Tg-AD mice; type: in vivo, mouse; conditions: 0.25 mg/kg i.p. daily 28 days; NBG vs HBG groups treated with compound (I)
Description: Hyperglycemia was induced by streptozotocin (STZ) to accelerated Alzheimer's disease progression of 6-month-old male transgenic 3×Tg−AD mice. Half of the 3×Tg−AD mice (n=30) received STZ (100 mg/kg) intraperitoneal injection at days 1, 2, 8, and 9 respectively as the high blood glucose group (HBG); another half of the 3×Tg-AD mice (n=30) received sodium citrate (0.1 M) at the same time points as the normal blood glucose group (NBG). Then, HBG and NBG were divided into two groups respectively to give four groups such as NBG-compound (I), HBG-compound (I), NBG-DMSO, and HBG-DMSO with n=15 in each group; wherein 0.25 mg/kg of compound (I) (in 30 μL) were intraperitoneal injected into those mice of NBG-compound (I) and HBG-compound (I) groups daily since day 14 for 28 days, and 30 μL of DMSO solvent were intraperitoneal injected into those mice of NBG-DMSO and HBG-DMSO groups daily since day 14 for 28 days. Both mouse body weight (BW) and blood glucose (BG) were monitored every week.

[6] = tested on: p-tau (Ser202, Thr231 and Ser396); experiment: Western blot of phosphorylated tau in tauRD-DsRed SH-SY5Y cells; type: cell-based, human; conditions: untreated = 100%
Description: Western blotting analysis was applied for examining the expressions of HSPB1 and GRP78, the method was as follows: total proteins were extracted using RIPA buffer, which comprised 50 mM Tris-HCl, 150 mM NaCl, 1 mM EDTA, 1 mM EGTA, 0.1% SDS, 0.5% sodium deoxycholate, 1% Triton X-100, and a protease inhibitor cocktail (Calbiochem). […] of total proteins were separated on 10% SDS-PAGE gels and blotted onto nitrocellulose membrane which were stained (4° C., overnight) with antibodies against DsRed (1:500; Santa Cruz), HSPB1 (1:500; Santa Cruz), and GRP78 (1:200; Santa Cruz). Next, immunoreactive bands were detected using horseradish peroxidase-conjugated goat anti-mouse, goat anti-rabbit, or donkey anti-goat IgG antibodies (1:5000; GeneTex) and chemiluminescent substrate (Millipore).
The methods of cell culture and western blot analysis are similar to that described above, except that the antibodies against GSK-3β (total and p-Ser9) (1:1000; Cell Signaling), total tau (1:500; Dako), p-tau (Ser202) (1:500; AnaSpec), p-tau (Thr231 and Ser396) (1:1000; Invitrogen), [3-actin (1:5000; Millipore), or GAPDH (1:2000; MDBio) were used herein for evaluation of the expression levels thereof in the cells.

In the case of CCCCC/C=C\C/C=C\C/C=C\C/C=C\CCCC(=O)Nc1ccc(O)cc1 [compound (I), (5Z, 8Z, 11Z,14Z)-N-(4-Hydroxyphenyl)icosa-5 ,8 , 11,14-tetraen amide], the “neuronal survival and neurite length” value [1] is reported as “alleviate the phenomena of low neuronal survival rate and short neurite length”, the “GSK-3β inhibition in hippocampus (pT216-GSK-3β/GSK-3β, pS9-GSK-3β/GSK-3β)” value [2] is reported as “exerts inhibition for GSK-3β” and the “number of notal bristle” value [3] is reported as “effectively reduced the notal bristle loss”. For the same compound, the IC50 ([4]; 25 μM ATP, 1 ng GSK-3β, 30° C., 30 minutes) was 5.35 µM, the remaining activity at 0.018 µM ([4]; concentration of compound (I) 0.018 μM, read-out: residual activity of GSK-3β) was 69.6 ± 2% and the “body weight (BW)” value [5] was “no significant difference in BW”. The “phosphorylated tau Ser202 level relative to untreated cells” value [6] was 32%-42%, the “phosphorylated tau Ser396 level relative to untreated cells” value [6] was 54%-78% and the “phosphorylated tau Thr231 level relative to untreated cells” value [6] was 37%-48%.
